Reference: ChEMBL document CHEMBL1201862, “PubChem BioAssay data set” (2004)
Active and inactive are the calls of the source.

Experiments:
[1] = molecular target: G2/mitotic-specific cyclin-B1 (Homo sapiens, UniProt P14635); assay: G2/M cell cycle arrest in HeLa, late-stage follow-up, mechanism study for Wee1 degradation inhibitor project, FACS, panel member Cyclin B Degradation (AID 2088)
[2] = molecular target: Wee1-like protein kinase (Homo sapiens, UniProt P30291); assay: G2/M cell cycle arrest in HeLa, late-stage follow-up, mechanism study for Wee1 degradation inhibitor project, FACS, panel member Wee1 Degradation (AID 2088)
[3] = molecular target: T1, Voltage-dependent T-type calcium channel subunit alpha-1H (Homo sapiens, UniProt O95180); type: functional
[4] = molecular target: T1, Voltage-dependent T-type calcium channel subunit alpha-1H; assay: Inhibitors of T-Type Calcium Channels. [Related pubchem assays (depositor defined):AID449739, AID463087, AID489005, AID493041, AID504579, AID504584, AID504619, AID504628]; type: functional
[5] = HEp-2 cell cytotoxicity, dose response, cytotoxicity control for RSV inhibitor project, HTS (AID 2410); type: functional; conditions: human respiratory syncytial virus
[6] = molecular target: Neurotensin receptor type 1 (Homo sapiens, UniProt P30989); type: functional;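 further: Image-based confirmatory dose-response assay measuring agonist activity at NTR1; NTR1-expressing U2OS osteosarcoma cells imaged for beta-arrestin GFP spot formation; agonist potency where compounds increase beta-arrestin recruitment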
[7] = growth suppression of beta-catenin-knockout colon cells, dose response, cell-based, HCT116, human colon tumor (AID 1045); type: functional;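 further: HCT116 colon tumor cells with beta catenin knocked out; cells exposed to compound for 60 hours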
[8] = C. albicans growth with fluconazole, confirmation, fluorescence, retest (AID 2467); type: functional, cell-based
[9] = molecular target: T2, Neuropeptide Y receptor type 1 (Homo sapiens, UniProt P25929); type: functional;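 further: HEK293 cells with a CNG channel challenged with NPY then isoproterenol; potency as antagonist that reverses NPY suppression of cAMP signal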
T2 sequence (P25929 whole entry): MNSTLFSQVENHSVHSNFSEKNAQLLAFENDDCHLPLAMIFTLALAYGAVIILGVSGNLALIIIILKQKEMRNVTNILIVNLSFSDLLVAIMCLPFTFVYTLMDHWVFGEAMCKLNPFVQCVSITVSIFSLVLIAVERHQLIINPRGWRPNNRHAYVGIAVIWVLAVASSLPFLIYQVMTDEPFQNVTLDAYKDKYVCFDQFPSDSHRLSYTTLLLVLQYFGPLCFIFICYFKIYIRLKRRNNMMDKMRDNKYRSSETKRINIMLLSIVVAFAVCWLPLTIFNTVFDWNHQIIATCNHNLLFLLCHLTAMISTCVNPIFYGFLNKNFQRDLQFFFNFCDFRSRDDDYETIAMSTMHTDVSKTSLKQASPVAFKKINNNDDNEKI

[10] = growth suppression of PTEN-null colon cells, dose response, cell-based, HCT116 PTEN knockout (AID 1047); type: functional;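 further: HCT116 colon tumor cells with PTEN knocked out; cells exposed to compound for 60 hours before readout; potency for loss of cell viability measured by luminescence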
[11] = molecular target: T3, Neuropeptide Y receptor type 2 (Homo sapiens, UniProt P49146); type: functional, cell-based;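 further: HEK293 cells expressing the receptor and a CNG channel; stimulus was NPY near EC95 followed by isoproterenol to raise cAMP; antagonist potency measured as restoring cAMP signal that NPY suppresses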
T3 sequence (P49146 whole entry): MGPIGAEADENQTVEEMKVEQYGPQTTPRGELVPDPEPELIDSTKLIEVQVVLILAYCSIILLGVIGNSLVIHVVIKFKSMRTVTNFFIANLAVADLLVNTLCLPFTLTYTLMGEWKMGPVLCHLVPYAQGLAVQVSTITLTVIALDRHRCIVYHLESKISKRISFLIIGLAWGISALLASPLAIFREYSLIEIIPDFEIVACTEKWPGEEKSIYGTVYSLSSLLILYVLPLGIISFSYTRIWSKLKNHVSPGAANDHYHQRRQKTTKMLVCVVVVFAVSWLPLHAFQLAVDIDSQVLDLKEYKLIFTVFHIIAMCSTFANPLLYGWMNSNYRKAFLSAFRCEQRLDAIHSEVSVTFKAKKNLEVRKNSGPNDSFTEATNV

[12] = test system: Vero; assay: cells; type: functional; conditions: Chlorocebus sabaeus
[13] = NIH-3T3 fibroblast cytotoxicity, dose response, cytotoxicity control, cell-based, fluorescence, Alamar Blue, secondary assay (AID 2327); type: functional;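 further: NIH-3T3 mouse fibroblasts cultured with fluconazole at 8 µg/mL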
[14] = test system: Vero; assay: cells; type: functional, cell-based; conditions: Chlorocebus sabaeus
[15] = molecular target: Cytochrome P450 2D6 (Homo sapiens, UniProt P10635);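 further: CYP2D6 member of a cytochrome P450 panel assay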
[16] = microbe, parasite or virus in culture; type: functional; conditions: Mycobacterium tuberculosis
[17] = molecular target: Large T antigen (Simian virus 40, UniProt P03070); type: functional, Betapolyomavirus macacae;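 further: Confirmatory-stage PubChem screen for compounds that inhibit SV40 T antigen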
[18] = test system: CHO; assay: cytotoxicity in TLR9-MyD88 CHO cells, dose response, cytotoxicity control for TLR9-MyD88 binding inhibitor project, cell-based, luminescence (AID 588339); type: functional, hamster; conditions: Cricetulus griseus;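 further: CHO cells stably coexpressing TLR9 and MyD88 fusions from primary screen; compound exposure lasted 48 hours before viability readout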
[19] = molecular target: Beta Lactamase (Pseudomonas aeruginosa, UniProt Q932Y6); assay: beta-lactamase reporter inhibitor potency, dose response, artefact control for TLR9-MyD88 binding inhibitor project, BLA reporter cells, FRET fluorescence (AID 588341); type: cell-based;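 further: cell based assay in CHO-K1 cells stably expressing beta-lactamase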
[20] = HeLa cell cytotoxicity, dose response, cytotoxicity control for MgcRacGAP inhibitor project (AID 624300); type: functional
[21] = molecular target: Phospholipase A2 (Homo sapiens, UniProt P04054); type: functional;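 further: confirmatory dose-response counterscreen on phospholipase A2, testing hits that came from an ultra-high-throughput screen for ATG4B inhibitors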
[22] = molecular target: T4, Cysteine protease ATG4B (Homo sapiens, UniProt Q9Y4P1); type: functional;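 further: Fluorescence-based dose-response confirmation assay measuring inhibition of ATG4B activity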
T4 sequence (Q9Y4P1 whole entry): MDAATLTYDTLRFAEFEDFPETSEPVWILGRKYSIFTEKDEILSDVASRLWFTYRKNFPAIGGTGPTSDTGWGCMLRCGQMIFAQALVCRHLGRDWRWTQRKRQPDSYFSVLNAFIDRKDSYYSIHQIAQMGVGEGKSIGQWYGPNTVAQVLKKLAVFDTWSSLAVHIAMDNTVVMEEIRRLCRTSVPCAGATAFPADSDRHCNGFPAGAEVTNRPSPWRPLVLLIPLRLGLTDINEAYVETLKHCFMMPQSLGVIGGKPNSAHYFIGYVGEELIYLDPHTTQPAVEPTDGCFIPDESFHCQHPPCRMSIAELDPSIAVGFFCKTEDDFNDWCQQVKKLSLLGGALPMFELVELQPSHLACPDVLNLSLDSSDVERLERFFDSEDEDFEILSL

[23] = molecular target: T5, Rac GTPase-activating protein 1 (Homo sapiens, UniProt Q9H0H5); assay: MgcRacGAP GTPase-activating activity inhibitors, confirmation, biochemical, ADP Hunter fluorescence, primary and confirmatory (AID 624330); type: functional
T5 sequence (Q9H0H5 whole entry): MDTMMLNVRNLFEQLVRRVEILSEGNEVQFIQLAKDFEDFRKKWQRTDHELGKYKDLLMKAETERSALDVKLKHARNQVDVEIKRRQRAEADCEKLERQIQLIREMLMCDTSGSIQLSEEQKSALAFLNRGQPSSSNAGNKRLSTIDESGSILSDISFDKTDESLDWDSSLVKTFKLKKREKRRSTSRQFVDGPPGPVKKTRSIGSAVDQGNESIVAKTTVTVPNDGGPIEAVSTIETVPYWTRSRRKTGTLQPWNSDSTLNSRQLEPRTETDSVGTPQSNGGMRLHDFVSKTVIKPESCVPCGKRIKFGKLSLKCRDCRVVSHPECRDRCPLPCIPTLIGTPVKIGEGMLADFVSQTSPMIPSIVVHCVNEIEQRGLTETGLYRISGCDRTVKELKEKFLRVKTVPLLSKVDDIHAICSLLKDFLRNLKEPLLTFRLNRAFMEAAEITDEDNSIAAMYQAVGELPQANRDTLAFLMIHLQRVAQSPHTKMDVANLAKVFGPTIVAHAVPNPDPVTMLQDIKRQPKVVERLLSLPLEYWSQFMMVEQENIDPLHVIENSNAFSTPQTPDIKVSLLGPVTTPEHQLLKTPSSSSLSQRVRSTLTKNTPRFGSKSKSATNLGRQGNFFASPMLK

[24] = molecular target: T6, Apoptotic protease-activating factor 1 (Homo sapiens, UniProt O14727); type: functional
T6 sequence (O14727 whole entry): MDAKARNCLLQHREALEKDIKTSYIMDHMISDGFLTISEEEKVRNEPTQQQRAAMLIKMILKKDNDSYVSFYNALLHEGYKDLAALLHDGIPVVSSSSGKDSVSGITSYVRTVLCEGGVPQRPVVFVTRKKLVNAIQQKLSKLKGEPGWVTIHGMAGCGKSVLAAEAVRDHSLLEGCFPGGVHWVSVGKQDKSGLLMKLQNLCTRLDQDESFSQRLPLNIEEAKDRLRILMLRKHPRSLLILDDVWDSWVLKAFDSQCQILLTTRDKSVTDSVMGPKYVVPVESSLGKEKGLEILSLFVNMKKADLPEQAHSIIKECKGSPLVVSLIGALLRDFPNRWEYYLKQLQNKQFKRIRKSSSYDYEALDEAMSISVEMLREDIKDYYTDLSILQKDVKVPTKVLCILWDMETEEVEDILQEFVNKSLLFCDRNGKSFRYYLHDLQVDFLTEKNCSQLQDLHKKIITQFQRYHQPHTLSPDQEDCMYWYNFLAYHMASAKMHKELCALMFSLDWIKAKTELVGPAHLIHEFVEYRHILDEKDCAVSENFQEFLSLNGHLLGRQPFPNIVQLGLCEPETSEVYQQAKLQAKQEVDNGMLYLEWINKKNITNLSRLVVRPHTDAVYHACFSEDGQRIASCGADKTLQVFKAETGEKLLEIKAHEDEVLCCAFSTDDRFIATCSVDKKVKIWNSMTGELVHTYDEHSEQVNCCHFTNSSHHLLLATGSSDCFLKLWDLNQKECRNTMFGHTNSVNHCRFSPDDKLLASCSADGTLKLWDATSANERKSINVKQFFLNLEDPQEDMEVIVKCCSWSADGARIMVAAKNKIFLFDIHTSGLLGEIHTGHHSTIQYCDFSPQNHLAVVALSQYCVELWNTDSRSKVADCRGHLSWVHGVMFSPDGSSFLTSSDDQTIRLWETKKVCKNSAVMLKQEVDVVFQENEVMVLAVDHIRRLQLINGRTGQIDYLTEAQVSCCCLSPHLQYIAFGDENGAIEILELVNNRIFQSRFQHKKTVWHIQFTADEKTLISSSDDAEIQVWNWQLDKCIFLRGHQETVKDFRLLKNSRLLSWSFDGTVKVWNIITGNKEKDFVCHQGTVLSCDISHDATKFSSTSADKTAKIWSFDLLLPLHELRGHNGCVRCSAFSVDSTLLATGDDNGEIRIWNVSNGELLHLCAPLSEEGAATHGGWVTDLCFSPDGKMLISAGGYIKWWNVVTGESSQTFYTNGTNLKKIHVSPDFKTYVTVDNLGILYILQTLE

[25] = molecular target: T7, Hexokinase HKDC1 (Homo sapiens, UniProt Q2TB90); assay: HKDC1 hexokinase inhibitors, dose response, biochemical, W721R variant (AID 504729); type: functional
T7 sequence (Q2TB90 whole entry): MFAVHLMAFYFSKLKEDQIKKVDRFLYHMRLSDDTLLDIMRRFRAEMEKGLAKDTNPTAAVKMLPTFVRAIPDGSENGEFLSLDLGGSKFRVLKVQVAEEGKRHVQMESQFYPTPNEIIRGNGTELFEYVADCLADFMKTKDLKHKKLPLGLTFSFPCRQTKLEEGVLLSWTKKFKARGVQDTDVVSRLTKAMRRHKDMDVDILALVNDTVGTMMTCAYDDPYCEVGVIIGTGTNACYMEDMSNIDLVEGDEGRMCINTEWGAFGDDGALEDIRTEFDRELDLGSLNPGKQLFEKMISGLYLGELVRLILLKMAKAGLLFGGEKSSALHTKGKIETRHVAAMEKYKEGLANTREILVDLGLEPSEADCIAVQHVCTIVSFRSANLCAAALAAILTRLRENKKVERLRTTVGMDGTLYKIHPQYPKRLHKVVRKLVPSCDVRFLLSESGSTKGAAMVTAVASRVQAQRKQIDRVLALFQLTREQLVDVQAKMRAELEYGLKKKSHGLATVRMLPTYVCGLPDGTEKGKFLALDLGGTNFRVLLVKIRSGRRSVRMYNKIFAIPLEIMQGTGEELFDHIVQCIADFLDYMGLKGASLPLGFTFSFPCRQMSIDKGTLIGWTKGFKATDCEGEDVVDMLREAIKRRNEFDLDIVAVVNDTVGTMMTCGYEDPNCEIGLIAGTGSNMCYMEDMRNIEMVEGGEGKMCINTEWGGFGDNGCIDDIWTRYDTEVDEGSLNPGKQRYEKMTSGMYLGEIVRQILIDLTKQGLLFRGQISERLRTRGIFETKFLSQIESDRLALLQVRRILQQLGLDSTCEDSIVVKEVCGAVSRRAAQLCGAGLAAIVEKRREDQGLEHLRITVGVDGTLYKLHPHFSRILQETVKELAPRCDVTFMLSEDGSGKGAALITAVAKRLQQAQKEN

[26] = molecular target: Cystic fibrosis transmembrane conductance regulator/Golgi-associated PDZ and coiled-coil motif-containing protein (Homo sapiens, UniProt P13569+Q9HD26); assay: CAL PDZ peptide-binding inhibitors, dose response, biochemical, fluorescence polarization, Cerulean-tagged CAL PDZ, cherry-picks (AID 504773)
[27] = molecular target: Cyclin-dependent kinase 5/CDK5 activator 1 (Homo sapiens, UniProt Q00535); assay: CDK5/p35 kinase inhibitors, dose response, biochemical, cherry-picked samples, set 2 (AID 504545)
Sequence of Cyclin-dependent kinase 5/CDK5 activator 1 (Q00535 whole entry): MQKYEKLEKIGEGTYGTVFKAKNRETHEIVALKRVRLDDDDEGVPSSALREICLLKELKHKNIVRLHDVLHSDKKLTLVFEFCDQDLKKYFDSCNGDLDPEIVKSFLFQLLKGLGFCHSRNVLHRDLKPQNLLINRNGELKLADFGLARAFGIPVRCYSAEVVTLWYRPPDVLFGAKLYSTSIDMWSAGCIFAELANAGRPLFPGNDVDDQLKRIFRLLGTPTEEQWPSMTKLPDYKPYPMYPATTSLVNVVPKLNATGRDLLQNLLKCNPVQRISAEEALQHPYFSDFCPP
Sequence of Cyclin-dependent kinase 5/CDK5 activator 1 (Q15078 whole entry, further chain): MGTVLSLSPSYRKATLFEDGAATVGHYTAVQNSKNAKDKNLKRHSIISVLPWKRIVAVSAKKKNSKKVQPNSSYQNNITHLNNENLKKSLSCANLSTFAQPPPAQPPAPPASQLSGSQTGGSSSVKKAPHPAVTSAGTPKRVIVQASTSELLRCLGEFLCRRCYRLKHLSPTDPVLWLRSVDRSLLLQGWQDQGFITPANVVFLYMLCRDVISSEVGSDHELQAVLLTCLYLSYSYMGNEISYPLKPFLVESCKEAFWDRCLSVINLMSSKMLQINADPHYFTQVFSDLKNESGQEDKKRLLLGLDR

T1 sequence (O95180 whole entry): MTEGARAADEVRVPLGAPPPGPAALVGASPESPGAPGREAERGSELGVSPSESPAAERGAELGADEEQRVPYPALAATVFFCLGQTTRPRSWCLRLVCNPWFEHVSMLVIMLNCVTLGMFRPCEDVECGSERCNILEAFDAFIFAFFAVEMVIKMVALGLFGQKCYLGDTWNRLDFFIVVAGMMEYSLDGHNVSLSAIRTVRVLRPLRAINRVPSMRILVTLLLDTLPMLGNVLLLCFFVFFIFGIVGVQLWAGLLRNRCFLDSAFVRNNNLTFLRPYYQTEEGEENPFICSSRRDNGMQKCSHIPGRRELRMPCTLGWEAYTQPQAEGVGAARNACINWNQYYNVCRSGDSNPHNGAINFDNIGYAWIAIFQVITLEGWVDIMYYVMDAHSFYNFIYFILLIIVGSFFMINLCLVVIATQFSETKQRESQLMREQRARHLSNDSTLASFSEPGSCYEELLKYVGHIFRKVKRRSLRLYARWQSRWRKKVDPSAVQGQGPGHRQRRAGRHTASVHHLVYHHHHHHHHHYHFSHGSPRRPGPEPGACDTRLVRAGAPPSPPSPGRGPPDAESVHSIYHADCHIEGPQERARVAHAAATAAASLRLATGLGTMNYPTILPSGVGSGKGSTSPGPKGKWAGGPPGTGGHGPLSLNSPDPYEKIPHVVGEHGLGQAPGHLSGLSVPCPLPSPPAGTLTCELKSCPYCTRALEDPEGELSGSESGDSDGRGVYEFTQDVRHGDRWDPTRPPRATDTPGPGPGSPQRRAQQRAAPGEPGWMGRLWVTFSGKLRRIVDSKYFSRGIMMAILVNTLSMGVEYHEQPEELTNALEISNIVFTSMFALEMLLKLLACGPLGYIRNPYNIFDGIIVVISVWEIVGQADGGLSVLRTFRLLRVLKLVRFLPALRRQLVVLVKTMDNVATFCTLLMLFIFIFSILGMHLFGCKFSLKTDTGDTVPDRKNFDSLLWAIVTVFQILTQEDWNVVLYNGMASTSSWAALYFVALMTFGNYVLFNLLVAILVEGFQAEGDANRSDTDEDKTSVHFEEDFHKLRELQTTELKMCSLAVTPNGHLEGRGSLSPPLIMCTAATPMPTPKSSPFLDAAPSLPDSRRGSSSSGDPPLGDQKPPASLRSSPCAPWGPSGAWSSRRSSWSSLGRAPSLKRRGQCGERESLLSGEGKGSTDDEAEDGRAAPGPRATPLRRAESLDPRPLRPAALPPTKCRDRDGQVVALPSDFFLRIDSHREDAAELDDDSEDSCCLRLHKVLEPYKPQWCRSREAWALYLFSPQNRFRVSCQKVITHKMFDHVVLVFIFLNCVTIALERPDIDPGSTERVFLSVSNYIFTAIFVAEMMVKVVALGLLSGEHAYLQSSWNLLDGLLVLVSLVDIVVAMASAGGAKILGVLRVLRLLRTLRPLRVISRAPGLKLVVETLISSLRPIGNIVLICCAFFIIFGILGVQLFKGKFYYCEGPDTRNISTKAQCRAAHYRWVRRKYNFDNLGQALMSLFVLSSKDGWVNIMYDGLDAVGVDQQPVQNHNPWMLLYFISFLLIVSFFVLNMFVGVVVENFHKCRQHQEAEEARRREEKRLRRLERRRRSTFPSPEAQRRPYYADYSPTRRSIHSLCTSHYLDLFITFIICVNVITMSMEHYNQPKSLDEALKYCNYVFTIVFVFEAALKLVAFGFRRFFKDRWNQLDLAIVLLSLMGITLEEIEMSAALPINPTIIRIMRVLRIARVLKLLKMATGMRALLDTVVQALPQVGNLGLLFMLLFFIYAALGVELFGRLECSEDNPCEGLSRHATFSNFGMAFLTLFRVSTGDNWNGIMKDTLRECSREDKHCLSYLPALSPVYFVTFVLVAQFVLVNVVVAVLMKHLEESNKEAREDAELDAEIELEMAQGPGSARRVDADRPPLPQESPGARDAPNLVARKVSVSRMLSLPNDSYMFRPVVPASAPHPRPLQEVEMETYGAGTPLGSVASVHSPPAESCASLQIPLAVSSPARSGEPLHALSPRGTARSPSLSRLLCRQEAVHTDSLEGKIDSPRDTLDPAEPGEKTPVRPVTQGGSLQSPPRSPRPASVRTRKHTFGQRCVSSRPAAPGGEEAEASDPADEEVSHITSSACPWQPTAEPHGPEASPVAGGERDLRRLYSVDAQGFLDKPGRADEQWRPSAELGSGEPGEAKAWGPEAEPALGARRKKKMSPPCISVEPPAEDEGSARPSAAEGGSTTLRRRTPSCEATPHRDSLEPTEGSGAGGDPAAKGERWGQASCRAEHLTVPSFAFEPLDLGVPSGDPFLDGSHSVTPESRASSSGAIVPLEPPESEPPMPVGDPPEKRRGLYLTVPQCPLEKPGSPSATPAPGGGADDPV
Sequence of Beta Lactamase (Q932Y6 whole entry): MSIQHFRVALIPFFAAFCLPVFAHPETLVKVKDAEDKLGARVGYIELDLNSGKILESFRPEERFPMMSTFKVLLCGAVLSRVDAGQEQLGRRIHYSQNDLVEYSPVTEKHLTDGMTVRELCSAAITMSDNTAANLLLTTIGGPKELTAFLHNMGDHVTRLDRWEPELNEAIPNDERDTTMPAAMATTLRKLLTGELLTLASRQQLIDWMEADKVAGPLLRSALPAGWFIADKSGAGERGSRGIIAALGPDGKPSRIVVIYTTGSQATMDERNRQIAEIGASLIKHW
Sequence of Phospholipase A2 (P04054 whole entry): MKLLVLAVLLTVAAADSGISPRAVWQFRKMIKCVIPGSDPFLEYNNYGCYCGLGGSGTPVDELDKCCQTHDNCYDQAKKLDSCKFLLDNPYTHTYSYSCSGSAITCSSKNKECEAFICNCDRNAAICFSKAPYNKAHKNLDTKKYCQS
Sequence of Large T antigen (P03070 whole entry, the tested form may be a part): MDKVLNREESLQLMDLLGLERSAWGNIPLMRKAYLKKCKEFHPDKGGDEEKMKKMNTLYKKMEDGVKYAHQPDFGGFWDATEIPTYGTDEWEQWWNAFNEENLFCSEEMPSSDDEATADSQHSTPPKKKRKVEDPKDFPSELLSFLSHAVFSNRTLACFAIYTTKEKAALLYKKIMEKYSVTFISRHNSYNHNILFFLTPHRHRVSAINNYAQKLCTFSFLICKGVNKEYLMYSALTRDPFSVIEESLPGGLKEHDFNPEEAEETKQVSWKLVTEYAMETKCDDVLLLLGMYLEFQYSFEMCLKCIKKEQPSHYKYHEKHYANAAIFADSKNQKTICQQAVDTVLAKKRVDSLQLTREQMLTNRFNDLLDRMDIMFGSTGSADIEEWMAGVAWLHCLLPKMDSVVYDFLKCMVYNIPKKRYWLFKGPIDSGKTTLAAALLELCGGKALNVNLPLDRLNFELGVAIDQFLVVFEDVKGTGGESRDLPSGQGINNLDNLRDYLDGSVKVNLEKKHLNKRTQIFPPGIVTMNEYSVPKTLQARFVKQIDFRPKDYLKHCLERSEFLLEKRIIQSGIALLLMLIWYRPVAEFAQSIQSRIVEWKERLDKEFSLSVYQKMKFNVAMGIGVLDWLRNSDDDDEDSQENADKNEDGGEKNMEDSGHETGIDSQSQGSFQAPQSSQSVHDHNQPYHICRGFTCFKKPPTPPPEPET
Sequence of Wee1-like protein kinase (P30291 whole entry): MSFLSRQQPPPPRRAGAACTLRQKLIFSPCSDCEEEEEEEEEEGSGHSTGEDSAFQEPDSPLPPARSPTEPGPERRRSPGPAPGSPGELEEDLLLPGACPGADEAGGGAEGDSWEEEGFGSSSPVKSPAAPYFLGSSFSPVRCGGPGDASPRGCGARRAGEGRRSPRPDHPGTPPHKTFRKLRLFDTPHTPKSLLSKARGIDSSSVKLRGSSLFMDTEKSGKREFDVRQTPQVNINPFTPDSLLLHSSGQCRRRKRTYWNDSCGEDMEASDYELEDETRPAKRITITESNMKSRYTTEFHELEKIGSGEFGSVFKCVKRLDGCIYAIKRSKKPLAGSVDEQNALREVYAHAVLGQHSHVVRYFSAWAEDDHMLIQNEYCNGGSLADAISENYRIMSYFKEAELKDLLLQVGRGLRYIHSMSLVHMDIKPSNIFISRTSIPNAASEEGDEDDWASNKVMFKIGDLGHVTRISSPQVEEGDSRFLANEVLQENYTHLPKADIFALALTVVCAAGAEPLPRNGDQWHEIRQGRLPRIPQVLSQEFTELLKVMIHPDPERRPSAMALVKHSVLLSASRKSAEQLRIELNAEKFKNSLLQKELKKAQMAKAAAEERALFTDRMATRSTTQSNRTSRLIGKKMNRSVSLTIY

COc1ccc(C)cc1NC(=O)CCCOc1cc(=O)n(C)c2ccccc12
EC50 [1]: > 49.7 µM (inactive)
EC50 [2]: > 49.7 µM (inactive)

O=C(CN1CCC(n2nnc3cc(F)ccc32)CC1)Nc1ccc2c(c1)CCC2
EC50 [3]: 5.76 µM (active)
EC50 [4]: 6.67 µM (active)
CC50 [5]: > 50 µM (active)

O=C(/C=C/c1cccc(Cl)c1)c1nc2ccccc2[nH]1
EC50 [6]: 25.8 µM (inactive)
EC50 [7]: 2.2 µM (active)
EC50 [8]: 2.34 µM (active)
IC50 [9]: 7.7 µM (active)
EC50 [10]: 2.16 µM (active)
IC50 [11]: 5.08 µM (active)
CC50 [12]: 12.1 µM (active)
EC50 [13]: 67 µM (inconclusive)
IC50 [14]: > 25 µM (active)

O=C1C(SCCO)=C(SCCO)C(=O)c2ccccc21
AC50 [15]: 31.6 µM (inconclusive)
CC50 [16]: 30.1 µM (active)
IC50 [17]: 26.6 µM (active)
IC50 [18]: 479 nM (active)
IC50 [19]: 12.1 µM (inactive)
CC50 [20]: 24.5 µM (active)
IC50 [21]: 55.5 µM (inactive)
IC50 [22]: 12.8 µM (active)
IC50 [23]: 32.5 µM (active)
IC50 [24]: 12.7 µM (active)
IC50 [25]: 3.15 µM (active)

NS(=O)(=O)c1ccc(N2N=C(c3ccccc3)CC2c2ccccc2)cc1 (configuration not stated)
AC50 [26]: 66.6 µM (active)

COc1ccc(S(=O)(=O)Nc2c(C(=O)O)[nH]c3ccc(OC)cc23)c(OC)c1
AC50 [27]: 20.6 µM (active)
